In patent US5801260A, “Carbonothioate phospholipid analogs as substrate of phospholipases and lipases” (priority 1995, dated 1998):

Tests used:
[1] = target: T1, cobra venom phospholipase A2 (Naja atra, UniProt P00598); experiment: Inhibition of phospholipase A2 by a reversible inhibitor, carbonothioate assay; type: biochemical; conditions: substrate 1-decanoyl-2-octylcarbonothioyl-sn-glycero-3-phosphocholine 0.5 mM, standard buffer with 4.24 mM Triton X-100; inhibitor 1 μM to 20 μM; FIG. 8
T1 construct: cobra venom phospholipase A2 (Naja naja atra); from tissue; host or cells: venom of Naja naja atra
T1 sequence (P00598 28-146 limits assumed): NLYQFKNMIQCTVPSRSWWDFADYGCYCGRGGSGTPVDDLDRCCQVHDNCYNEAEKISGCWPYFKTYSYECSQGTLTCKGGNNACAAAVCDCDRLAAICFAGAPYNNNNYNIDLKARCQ
Procedure: (§1) (b) Method: The desired amount of carbonothioate phospholipid in methylene chloride was evaporated to dryness under a stream of nitrogen. An appropriate volume of buffer A is added. This solution was sonicated in a bath sonicator to clearness. The assay was carried out at 40° C. A cuvette, containing 0.3 mL of assay mixture and 5 μL of DTNB was placed in the compartment of a spectrophotometer thermostated at 40° C. After equilibration of the substrate for 2 min at 40° C., a stable baseline was recorded for 150 sec. To initiate the reaction, cobra venom phospholipase A2 (Naja naja atra) (5 μL containing 125 ng protein in buffer B) was added to the cuvette and the reaction was recorded spectrophotometrically at 412 nm for 150 sec. The phospholipase activity is calculated using the extinction coefficient of 12,000 M^-1 cm^-1. Between each run, the cuvette is rinsed with Clorox, water and acetone.
Method: The appropriate volume of carbonothioate phospholipid in methylene chloride was dried under a stream of nitrogen. […] The enzymatic activity was determined similarly to Example 5 except that 500 ng enzyme was used.
A solution of 1-decanoyl-2-octylcarbonothioyl-sn-glycero-3-phosphocholine (1.0 mM) in buffer C was prepared as in Example 6. […] The enzymatic activity in the presence of the amide analog was determined as in Example 6.

[2] = target: T1, cobra venom phospholipase A2; experiment: Inactivation of phospholipase A2 by an irreversible inhibitor, carbonothioate assay of residual activity; type: biochemical; conditions: enzyme preincubated with 100 μM inhibitor at 40° C.; substrate 1-decanoyl-2-octylcarbonothioyl-sn-glycero-3-phosphocholine 0.5 mM, 4.24 mM Triton X-100; FIG. 9
Procedure: as §1
Method: The appropriate volume of carbonothioate phospholipid in methylene chloride was dried under a stream of nitrogen. To prepare mixed micelles, the appropriate volume of buffer C was added, and the volume was brought to the final volume with buffer B. This solution was bath-sonicated to obtain a clear solution. The enzymatic activity was determined similarly to Example 5 except that 500 ng enzyme was used. […]

Row | Compound | inhibition of cobra venom phospholipase A2 as determined by the carbonothioate assay [1] | inhibition of cobra venom phospholipase A2 as followed by the carbonothioate assay [2]
1 | CCCCCCCCCCCCCCCCSC[C@H](COP(=O)([O-])OCC[N+](C)(C)C)NC(=O)CCCCCCCCCCCCCCC [amide substrate analogs, 1-hexadecyl-thio-2-hexadecanoylamino-1,2-dideoxy-sn-glycero-3-phosphocholine] | inhibition | –
2 | CCCCCCCCCC(=O)OCC(COP(=O)([O-])OCC[N+](C)(C)C)OC(=O)CC(C)(C)CC(=O)Oc1ccc([N+](=O)[O-])cc1 (centres unmarked) [irreversible inhibitor] | – | time-dependent inhibition
